Results published in article PMC3859608, “C-Terminus of the B-Chain of Relaxin-3 Is Important for Receptor Activity” (PLoS ONE, 2013).
“Also recorded” adds a separate entry of the source.

Tests used:
RXFP3 [1] = target: T1, RXFP3 (Homo sapiens, UniProt Q9NSD7); details: in presence of orthosteric agonist; H3 amide or H3 acid; cited from earlier work
T1 construct: expressed in transfected cells
T1 sequence (Q9NSD7 1-469): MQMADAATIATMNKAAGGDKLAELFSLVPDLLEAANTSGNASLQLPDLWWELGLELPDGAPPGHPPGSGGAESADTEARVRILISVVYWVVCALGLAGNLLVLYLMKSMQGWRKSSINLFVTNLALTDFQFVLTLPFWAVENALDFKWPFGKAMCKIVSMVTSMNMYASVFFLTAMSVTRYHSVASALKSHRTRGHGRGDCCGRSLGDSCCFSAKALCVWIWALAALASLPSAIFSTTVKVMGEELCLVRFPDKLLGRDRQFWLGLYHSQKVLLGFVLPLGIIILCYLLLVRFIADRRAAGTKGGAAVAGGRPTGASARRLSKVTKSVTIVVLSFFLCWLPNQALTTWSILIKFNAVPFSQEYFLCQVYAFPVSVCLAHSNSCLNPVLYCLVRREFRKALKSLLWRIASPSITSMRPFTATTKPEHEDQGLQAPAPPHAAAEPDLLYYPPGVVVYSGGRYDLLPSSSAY
From the text: In this endeavour, a small molecule, 135PAM1, has recently been discovered by Alvarez-Jaimes et al. They reported that it was an allosteric modulator of RXFP3 that worked in the presence of an orthosteric agonist, H3 relaxin.

RXFP4 [2] = target: T2, RXFP4 (Homo sapiens, UniProt Q8TDU9); assay: cAMP activity (inhibition of forskolin-induced cAMP), CHO-K1 cells expressing RXFP4; type: cell-based; details: CHO-K1 RXFP4, pCRE-β-galactosidase reporter; forskolin 5 µM (method) / 1 µM (Fig. 3 legend); peptide 0.01 nM – 1 µM; mean ± SEM, n = 3, triplicate determinations; vs H3 acid: * H3 amide, ** p<0.01 H3 A-acid; read-out: RXFP4 cAMP pEC50 (converted)
T2 construct: expressed in transfected cells
Procedure: (§1) The ability of the peptides to activate the receptors RXFP3/RXFP4 was assessed by measuring their influence on cAMP signalling in CHO-K1 cells stably expressing RXFP3 or RXFP4 transfected with a pCRE-β-galactosidase reporter gene construct as previously described. A single concentration of forskolin was used to stimulate cAMP signalling in cells expressing RXFP3 (1 µM) and RXFP4 (5 µM) and peptide induced inhibition of cAMP signalling was measured by adding increasing concentrations of the peptides (0.01 nM – 1 µM). The ability of the peptides to inhibit forskolin-induced cAMP response (pEC50) was measured and expressed as mean ± SEM from three independent experiments with triplicate determinations within each assay. The inhibition curves were fitted to a single-site sigmoidal dose-response curve with variable slope using Graphpad PRISM 5.
(§2) Figure 3 Receptor binding affinity (pKi) and cAMP activity (pEC-50) curves of H3 relaxin and its variants at RXFP4. A) Competition binding curves of H3 relaxin variants at RXFP4 using a single concentration of Eu-INSL5 (2.5 nM) in the presence of increasing concentrations of the H3 relaxin peptides. B) RXFP4 activation curves of H3 relaxin variants measured in a cAMP activity assays in the presence of 1 µM forskolin. The data were expressed as mean ± SEM from at least three independent experiments.

RXFP4 [3] = target: T2, RXFP4; assay: Competition binding, Eu-labelled mouse INSL5, CHO-K1 cells expressing RXFP4; details: CHO-K1 cells stably expressing RXFP4; Eu-labelled mouse INSL5 2.5 nM; one site competition fit; mean ± SEM, n = 3, triplicate determinations; vs H3 acid: * H3 amide, ** p<0.01 H3 A-acid; read-out: RXFP4 Eu-INSL5 pKi (converted)
Procedure: (§3) The receptor binding affinity of the peptides was measured using CHO-K1 cells stably expressing RXFP3 and RXFP4. The competition binding assays were carried out as previously described, [27]. Briefly, a single concentration of Eu-labelled I5/R3 (0.5 nM) or Eu-labelled mouse INSL5 (2.5 nM) were used in presence of increasing concentration of peptides. The data were analyzed using GraphPad PRISM 5 (GraphPad Inc., San Diego, USA). The europium binding curves were fitted to a one site competition curve and the pKi values were expressed as the mean ± SEM of at least three independent experiments with triplicate determinations within each assay.
as §2

RXFP3 [4] = target: T1, RXFP3; assay: Competition binding, Eu-labelled I5/R3, CHO-K1 cells expressing RXFP3; details: CHO-K1 cells stably expressing RXFP3; Eu-I5/R3 0.5 nM; one site competition fit; mean ± SEM, n in parentheses in cell (3; H3 amide 4), triplicate determinations; ** p<0.01 vs H3 acid (H3 amide, H3 A-acid); read-out: RXFP3 Eu-H3/I5 pKi (converted)
Procedure: as §3
(§4) Figure 2 Receptor binding affinity (pKi) and cAMP activity (pEC-50) curves of H3 relaxin and its variants at RXFP3. A) Competition binding curves of H3 relaxin variants using a single concentration of Eu-I5/R3 (0.5 nM) in the presence of increasing concentrations of the H3 relaxin peptides. B) RXFP3 activation curves of H3 relaxin variants measured in a cAMP activity assay in the presence of 5 µM forskolin. The data were expressed as mean ± SEM. from at least three independent experiments.

RXFP3 [5] = target: T1, RXFP3; assay: cAMP activity (inhibition of forskolin-induced cAMP), CHO-K1 cells expressing RXFP3; type: cell-based; details: CHO-K1 RXFP3, pCRE-β-galactosidase reporter; forskolin 1 µM (method) / 5 µM (Fig. 2 legend); peptide 0.01 nM – 1 µM; mean ± SEM, n = 3, triplicate determinations; ** p<0.01 vs H3 acid (H3 amide, H3 A-acid); read-out: RXFP3 cAMP pEC50 (converted)
Procedure: as §1, §4

RXFP4 [6] = target: T2, RXFP4; details: sentence cites ref 7; cited from earlier work
From the text: (§5) It is a neuropeptide that is primarily expressed in the brain with the highest level detected in the nucleus incertus (NI) of the mouse, [8], rat, macaque and human. Neurons from the NI project to many regions of the brain where its distribution overlaps w ...

RXFP1 = details: cited from earlier work
From the text: as §5

RXFP3 [7] = target: T1, RXFP3; details: cited from earlier work
From the text: as §5

RXFP4 [8] = target: T2, RXFP4; details: both A and B chain C-termini amidated vs acid; cited from earlier work
From the text: Relaxin-3 is closely related to insulin-like peptide 5 (INSL5) as they both belong to the same branch in the phylogenetic tree of the relaxin family. In addition, the native receptors of relaxin-3 and INSL5, RXFP3 and RXFP4 respectively, belong to the same class of G-protein coupled receptors. On the basis of such close relationship between ligands (relaxin-3 and INSL5) and receptors (RXFP3 and RXFP4), it is most likely that relaxin-3 interacts with RXFP3 in a similar way to INSL5 interaction with RXFP4. Therefore, we tested all four H3 relaxin analogues on RXFP4. As expected, the H3 acid pept ... || The bioactivity of many polypeptide hormones often requires a form of post-translational modification of their precursors. An example of a widespread modification is C-terminal amidation which often leads to an increase in bioactivity of peptides [32]–[35]. In some cases, amidation of the C-terminus has been reported to have detrimental effect on the activity of peptides, [36]. […] In the case of relaxin family peptides, H2 relaxin and INSL3, both p ...

T2 sequence (Q8TDU9 whole entry, species assumed): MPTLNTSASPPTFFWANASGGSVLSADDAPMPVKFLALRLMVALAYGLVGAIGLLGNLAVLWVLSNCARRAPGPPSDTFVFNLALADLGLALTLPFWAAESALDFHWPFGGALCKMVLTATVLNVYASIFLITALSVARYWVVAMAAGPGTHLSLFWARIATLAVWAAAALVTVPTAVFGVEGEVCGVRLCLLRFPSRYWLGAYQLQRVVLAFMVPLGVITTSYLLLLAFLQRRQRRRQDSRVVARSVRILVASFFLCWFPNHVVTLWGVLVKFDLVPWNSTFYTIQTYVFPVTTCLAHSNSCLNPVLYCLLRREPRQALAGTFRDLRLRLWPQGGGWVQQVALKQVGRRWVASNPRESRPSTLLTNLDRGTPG

COc1ccc2[nH]cc(CCN(Cc3ccc(Cl)c(Cl)c3)C(=O)Nc3cc(C(F)(F)F)cc(C(F)(F)F)c3)c2c1 [135PAM1]
allosteric activity of 135PAM1, dependence on H3 relaxin C-terminus (RXFP3 [1]): active only when used with the non-native amidated form of H3 relaxin; also recorded: unable to act in the presence of the native form (acid) of H3 relaxin

CC[C@H](C)[C@@H]1NC(=O)[C@H](Cc2ccccc2)NC(=O)[C@H](CCC(=O)O)NC(=O)[C@H](CCCNC(=N)N)NC(=O)CNC(=O)[C@@H](NC(=O)[C@H](CC(C)C)NC(=O)[C@H](CCCNC(=N)N)NC(=O)[C@@H](NC(=O)CNC(=O)[C@H](Cc2ccc(O)cc2)NC(=O)[C@@H]2CCCN2C(=O)[C@H](C)NC(=O)[C@H](C)NC(=O)[C@@H](N)CCCNC(=N)N)C(C)C)CSSC[C@@H]2NC(=O)[C@@H](NC(=O)[C@H](CO)NC(=O)[C@H](CO)NC(=O)[C@H](CO)NC(=O)[C@H](CC(C)C)NC(=O)CNC(=O)[C@H](C)NC(=O)[C@H](CC(C)C)NC(=O)[C@@H](NC(=O)[C@@H](N)CC(=O)O)C(C)C)CSSC[C@H](NC(=O)CNC(=O)[C@H](Cc3c[nH]c4ccccc34)NC(=O)[C@H](CCCCN)NC2=O)C(=O)N[C@@H](CO)C(=O)N[C@@H](CCCCN)C(=O)N[C@@H](CO)C(=O)N[C@@H](CCC(=O)O)C(=O)N[C@@H]([C@@H](C)CC)C(=O)N[C@@H](CO)C(=O)N[C@@H](CO)C(=O)N[C@@H](CC(C)C)C(=O)N[C@H](C(N)=O)CSSC[C@@H](C(=O)NCC(=O)NCC(=O)N[C@@H](CO)C(=O)N[C@@H](CCCNC(=N)N)C(=O)N[C@@H](Cc2c[nH]c3ccccc23)C(N)=O)NC(=O)[C@H]([C@@H](C)O)NC(=O)[C@H](Cc2ccccc2)NC(=O)[C@H]([C@@H](C)CC)NC(=O)[C@H](C(C)C)NC(=O)[C@H](C)NC(=O)[C@H](CCCNC(=N)N)NC1=O [H3 amide]
EC50 (RXFP4 [2]): 4.17 nM
Ki (RXFP4 [3]): 39.8 nM
Ki (RXFP3 [4]): 158 nM
EC50 (RXFP3 [5]): 7.24 nM

H3 relaxin: neuropeptide with two chains (A and B) connected by three disulfide bonds
interaction with RXFP4 (RXFP4 [6]): with high affinity
interaction with RXFP1 (RXFP1): with high affinity
binding and activation of RXFP3 (RXFP3 [7]): binds and activates its cognate receptor

INSL5: insulin-like peptide 5; native ligand of RXFP4 (Insulin-like peptide INSL5 B … KESVRLCGLEYIRTVIYICASSRW; Insulin-like peptide INSL5 A … QDLQTLCCTDGCSMTDLSALC; UniProt Q9Y5Q6 23-46; Q9Y5Q6 115-135, looked up)
C-terminus requirement for RXFP4 activity of INSL5 (RXFP4 [8]): need to be an acid for full RXFP4 activity; also recorded: C-termini were required to be free (acid) for high RXFP4 activity
